From patent publication US11149031B2, “Substituted N-(3-fluoropropyl)-pyrrolidine compounds, processes for their preparation and therapeutic uses thereof” (SANOFI, priority 2016, dated 2021) come the findings set out here.

The IC50 is the midpoint of a concentration-inhibition curve.

For assay [1], the target named is His6-ERα298-554 Y537S mutant (ERα ligand-binding domain) (Homo sapiens (Human), UniProt P03372, Y537S). The assay is described as follows: Test A: biochemical antagonist activity, LanthaScreen TR-FRET ERα coactivator assay, Y537S mutant. The note with it: protocol with 3 nM estradiol; read-out: Antagonism Y537S IC50. In short, it runs like this:
(§1)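 IC50 values come from a 4-parameter logistic fit of the 520:495 nm TR-FRET ratio after overnight room-temperature incubation. The mix held 0.5 nM ERα 298–554 LBD, Tb-labelled anti-His6 antibody, 250 nM PGC1a peptide and 3 nM or 10 nM estradiol, pH 7.4 phosphate buffer with DTT.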

Assay [2] concerns the target His6-ERα298-554 D538G mutant (ERα ligand-binding domain) (Homo sapiens (Human), UniProt P03372, D538G). In words: Test A: biochemical antagonist activity, LanthaScreen TR-FRET ERα coactivator assay, D538G mutant. The conditions noted are these: protocol with 3 nM estradiol; read-out: Antagonism D538G IC50. Put shortly: as §1
Background: In TR-FRET formats the signal depends on donor and acceptor labels being close together.

Assay [3] has as its target His6-ERα298-554 WT (ERα ligand-binding domain) (Homo sapiens (Human), UniProt P03372). The assay is described as follows: Test A: biochemical antagonist activity, LanthaScreen TR-FRET ERα coactivator assay, WT. The note with it: protocol with 3 nM estradiol; read-out: Antagonism WT IC50. In short, it runs like this:
as §1

The target in assay [4] is ERα in MCF7 cells (Homo sapiens (Human), UniProt P03372). The assay is described as follows: Test C: estrogen receptor degradation activity, ERα in cell western assay in MCF7 cells. The assay is classed as cell-based. The conditions noted are these: for DC50: 4 hours post compound addition, ERα in cell western, read-out: Degradation IC50; for % Degradation at 3 μM: 4 hours, relative to fulvestrant. In short, it runs like this:
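Degradation of ERα was gauged in MCF7 cells after 4 h treatment, by fluorescence immunostaining normalised against DNA content.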

Sequence of His6-ERα298-554 Y537S mutant (ERα ligand-binding domain) (P03372 298-554 Y537S): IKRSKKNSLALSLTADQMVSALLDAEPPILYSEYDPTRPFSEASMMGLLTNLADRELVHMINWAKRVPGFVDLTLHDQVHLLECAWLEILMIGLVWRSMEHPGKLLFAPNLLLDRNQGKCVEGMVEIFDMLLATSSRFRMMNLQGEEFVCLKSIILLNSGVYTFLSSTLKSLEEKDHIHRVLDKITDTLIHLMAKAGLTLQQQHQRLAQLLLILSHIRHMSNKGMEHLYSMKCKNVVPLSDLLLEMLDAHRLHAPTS
Sequence of His6-ERα298-554 D538G mutant (ERα ligand-binding domain) (P03372 298-554 D538G): as the sequence (P03372 298-554 Y537S) above, with S240Y, D241G counted along it
Sequence of His6-ERα298-554 WT (ERα ligand-binding domain) (P03372 298-554): as the sequence (P03372 298-554 Y537S) above, with S240Y counted along it
Sequence of ERα in MCF7 cells (P03372 whole entry): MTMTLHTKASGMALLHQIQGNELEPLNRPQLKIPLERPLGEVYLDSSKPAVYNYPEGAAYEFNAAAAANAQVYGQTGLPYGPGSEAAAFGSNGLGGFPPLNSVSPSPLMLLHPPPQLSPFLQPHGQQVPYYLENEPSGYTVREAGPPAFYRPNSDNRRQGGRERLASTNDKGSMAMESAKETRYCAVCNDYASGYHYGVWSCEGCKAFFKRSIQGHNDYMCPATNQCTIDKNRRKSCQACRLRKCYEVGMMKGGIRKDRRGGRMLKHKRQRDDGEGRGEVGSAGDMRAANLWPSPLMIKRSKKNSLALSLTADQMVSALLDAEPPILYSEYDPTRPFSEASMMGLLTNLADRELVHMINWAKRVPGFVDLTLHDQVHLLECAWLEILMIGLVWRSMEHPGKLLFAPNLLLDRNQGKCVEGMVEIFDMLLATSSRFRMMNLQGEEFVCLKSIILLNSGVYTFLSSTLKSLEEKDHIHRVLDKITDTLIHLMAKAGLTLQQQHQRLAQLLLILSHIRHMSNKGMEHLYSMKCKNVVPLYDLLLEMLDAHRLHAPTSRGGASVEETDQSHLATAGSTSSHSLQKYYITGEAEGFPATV

In the case of `Cc1ccc(C2=C(c3ccc(O[C@H]4CCN(CCCF)C4)cc3)c3ccc(O)cc3S(=O)(=O)CC2)c(F)c1` [Example 230, 4-(2-fluoro-4-methyl-phenyl)-5-[4-[(3S)-1-(3-fluoropropyl)pyrrolidin-3-yl]oxyphenyl]-1,1-dioxo-2,3-dihydro-1λ^6-benzothiepin-8-ol], the results for the IC50 in assay [1], in assay [2] and in assay [3] were 41 nM, 99 nM and 14 nM, respectively. The DC50 in assay [4] is 0.8 nM. For the same molecule, the “% Degradation at 3 μM” value in assay [4] worked out at 93%.

`Oc1ccc2c(c1)SCCC(c1cccc(F)c1Cl)=C2c1ccc(O[C@H]2CCN(CCCF)C2)cc1` [Example 168, 4-(2-chloro-3-fluoro-phenyl)-5-[4-[(3S)-1-(3-fluoropropyl)pyrrolidin-3-yl]oxyphenyl]-2,3-dihydro-1-benzothiepin-8-ol]: the IC50 in assay [1] is 9 nM; in assay [2], 14 nM; in assay [3], 3 nM. Moreover, the DC50 in assay [4] amounted to 0.7 nM. Besides, in assay [4], the “% Degradation at 3 μM” value turned out to be 86%.

On to `Cc1c(O)ccc2c1OCCC(c1cccc3[nH]ccc13)=C2c1ccc(O[C@H]2CCN(CCCF)C2)cc1` [Example 130, 5-[4-[(3S)-1-(3-fluoropropyl)pyrrolidin-3-yl]oxyphenyl]-4-(1H-indol-4-yl)-9-methyl-2,3-dihydro-1-benzoxepin-8-ol], for which the results for the IC50 in assay [1], in assay [2] and in assay [3] were 777 nM, 1190 nM and 70 nM, respectively. The DC50 in assay [4] was found to be 18 nM. For the same molecule, the “% Degradation at 3 μM” value in assay [4] was 73%.

On to `Oc1ccc2c(c1)C(c1ccc(O[C@H]3CCN(CCCF)C3)cc1)=C(c1ccc(F)c(Cl)c1)CCS2` [Example 174, 4-(3-chloro-4-fluoro-phenyl)-5-[4-[(3S)-1-(3-fluoropropyl)pyrrolidin-3-yl]oxyphenyl]-2,3-dihydro-1-benzothiepin-7-ol], for which the IC50 in assay [1] came to 222 nM; in assay [2], 422 nM; in assay [3], 53 nM. Also, the DC50 in assay [4] was found to be 4 nM. In addition, the “% Degradation at 3 μM” value in assay [4] was 81%.

For the molecule `Cc1c(Cl)cccc1C1=C(c2ccc(O[C@H]3CCN(CCCF)C3)cc2)c2ccc(O)cc2S(=O)(=O)CC1` [Example 235, 4-(3-chloro-2-methyl-phenyl)-5-[4-[(3S)-1-(3-fluoropropyl)pyrrolidin-3-yl]oxyphenyl]-1,1-dioxo-2,3-dihydro-1λ^6-benzothiepin-8-ol], the results for the IC50 in assay [1], in assay [2] and in assay [3] were 83 nM, 100 nM and 13 nM, respectively. In assay [4], the DC50 came to 0.9 nM. Moreover, in assay [4], the “% Degradation at 3 μM” value came out at 95%.

As to `Oc1ccc2c(c1Cl)OCCC(c1ccc3c(c1)CCN3)=C2c1ccc(O[C@H]2CCN(CCCF)C2)cc1` [Example 115, 9-chloro-5-[4-[(3S)-1-(3-fluoropropyl)pyrrolidin-3-yl]oxyphenyl]-4-indolin-5-yl-2,3-dihydro-1-benzoxepin-8-ol], the figures for the IC50 in assay [1], in assay [2] and in assay [3] were 200 nM, 322 nM and 88 nM, respectively. The DC50 in assay [4] worked out at 6 nM. Also, the “% Degradation at 3 μM” value in assay [4] was found to be 77%.

As to `O=S1(=O)CCC(c2cccc(F)c2Cl)=C(c2ccc(O[C@H]3CCN(CCCF)C3)cc2)c2ccc(O)cc21` [Example 232, 4-(2-chloro-3-fluoro-phenyl)-5-[4-[(3S)-1-(3-fluoropropyl)pyrrolidin-3-yl]oxyphenyl]-1,1-dioxo-2,3-dihydro-1λ^6-benzothiepin-8-ol], the IC50 in assay [1] was 78 nM; in assay [2] it was 99 nM; in assay [3], 16 nM. Also, the DC50 in assay [4] was found to be 0.2 nM. In assay [4], the “% Degradation at 3 μM” value stood at 95%.

In the case of `Cc1cc(C2=C(c3ccc(O[C@H]4CCN(CCCF)C4)cc3)c3ccc(O)cc3S(=O)(=O)CC2)ccc1Cl` [Example 236, 4-(4-chloro-3-methyl-phenyl)-5-[4-[(3S)-1-(3-fluoropropyl)pyrrolidin-3-yl]oxyphenyl]-1,1-dioxo-2,3-dihydro-1λ^6-benzothiepin-8-ol], the results for the IC50 in assay [1], in assay [2] and in assay [3] were 29 nM, 54 nM and 8 nM, respectively. Also, in assay [4], the DC50 amounted to 0.3 nM. Further, in assay [4], the “% Degradation at 3 μM” value is listed as 91%.

As for `Cc1ccc(C2=C(c3ccc(O[C@H]4CCN(CCCF)C4)cc3)c3ccc(O)c(Cl)c3OCC2)c(F)c1` [Example 108, 9-chloro-4-(2-fluoro-4-methyl-phenyl)-5-[4-[(3S)-1-(3-fluoropropyl)pyrrolidin-3-yl]oxyphenyl]-2,3-dihydro-1-benzoxepin-8-ol], the IC50 in assay [1] is 129 nM; in assay [2] it was 221 nM; in assay [3], 30 nM. For the same molecule, the DC50 in assay [4] worked out at 3 nM. Besides, the “% Degradation at 3 μM” value in assay [4] is recorded as 86%.

Consider `Oc1ccc(C2=C(c3ccc(O[C@H]4CCN(CCCF)C4)cc3)c3cc(O)ccc3CC2)c(F)c1` [Example 6, 7-(2-fluoro-4-hydroxy-phenyl)-8-[4-[(3S)-1-(3-fluoropropyl)pyrrolidin-3-yl]oxyphenyl]-5,6-dihydronaphthalen-2-ol], for which the IC50 came to 8 nM in assay [1], 13 nM in assay [2] and 2 nM in assay [3]. Also, the DC50 in assay [4] came to 0.2 nM. In assay [4], the “% Degradation at 3 μM” value worked out at 84%.

On to `Oc1ccc2c(c1Cl)OCCC(c1ccc3[nH]ccc3c1)=C2c1ccc(O[C@H]2CCN(CCCF)C2)cc1` [Example 114, 9-chloro-5-[4-[(3S)-1-(3-fluoropropyl)pyrrolidin-3-yl]oxyphenyl]-4-(1H-indol-5-yl)-2,3-dihydro-1-benzoxepin-8-ol], for which the IC50 is 104 nM in assay [1], 178 nM in assay [2] and 29 nM in assay [3]. For the same molecule, the DC50 in assay [4] was found to be 5 nM. In assay [4], the “% Degradation at 3 μM” value came out at 71%.

With `Cc1c(Cl)cccc1C1=C(c2ccc(O[C@H]3CCN(CCCF)C3)cc2)c2ccc(O)c(C)c2OCC1` [Example 112, 4-(3-chloro-2-methyl-phenyl)-5-[4-[(3S)-1-(3-fluoropropyl)pyrrolidin-3-yl]oxyphenyl]-9-methyl-2,3-dihydro-1-benzoxepin-8-ol], the IC50 is 543 nM in assay [1], 838 nM in assay [2] and 91 nM in assay [3]. For the same molecule, the DC50 in assay [4] was 4 nM. In assay [4], the “% Degradation at 3 μM” value stood at 87%.

With `Oc1ccc2c(c1)SCC(c1ccc3c(c1)CCN3)=C2c1ccc(O[C@H]2CCN(CCCF)C2)cc1` [Example 20, 4-[4-[(3S)-1-(3-fluoropropyl)pyrrolidin-3-yl]oxyphenyl]-3-indolin-5-yl-2H-thiochromen-7-ol], the IC50 in assay [1] is 21 nM; in assay [2] it was 46 nM; in assay [3], 15 nM. Moreover, the DC50 in assay [4] was 3 nM. Further, in assay [4], the “% Degradation at 3 μM” value worked out at 86%.

`O=S1(=O)CCC(c2cccc(O)c2)=C(c2ccc(O[C@H]3CCN(CCCF)C3)cc2)c2ccc(O)cc21` [Example 228, 5-[4-[(3S)-1-(3-fluoropropyl)pyrrolidin-3-yl]oxyphenyl]-4-(3-hydroxyphenyl)-1,1-dioxo-2,3-dihydro-benzothiepin-8-ol]: the IC50 in assay [1] came out at 38 nM; in assay [2], 73 nM; in assay [3], 6 nM. Besides, the DC50 in assay [4] is 0.2 nM. Besides, in assay [4], the “% Degradation at 3 μM” value amounted to 87%.

For `Oc1ccc2c(c1Cl)OCCC(c1ccc3c(c1)NCC3)=C2c1ccc(O[C@H]2CCN(CCCF)C2)cc1` [Example 125, 9-chloro-5-[4-[(3S)-1-(3-fluoropropyl)pyrrolidin-3-yl]oxyphenyl]-4-indolin-6-yl-2,3-dihydro-1-benzoxepin-8-ol], the IC50 in assay [1] came out at 945 nM; in assay [2] it was 1340 nM; in assay [3], 190 nM. Also, the DC50 in assay [4] turned out to be 4 nM. In addition, the “% Degradation at 3 μM” value in assay [4] is 84%.

Consider `Oc1ccc2c(c1Cl)OCCC(c1ccc3cc[nH]c3c1)=C2c1ccc(O[C@H]2CCN(CCCF)C2)cc1` [Example 123, 9-chloro-5-[4-[(3S)-1-(3-fluoropropyl)pyrrolidin-3-yl]oxyphenyl]-4-(1H-indol-6-yl)-2,3-dihydro-1-benzoxepin-8-ol], for which the IC50 in assay [1] worked out at 1430 nM; in assay [2] it was 2290 nM; in assay [3] it was 156 nM. Further, the DC50 in assay [4] turned out to be 15 nM. In assay [4], the “% Degradation at 3 μM” value is given as 81%.
